Patent US20070281991A1, “Preparation Of Phenol-Amide Compounds With Anti-Oxidizing Properties” (priority 2004, published 2007)

Assay: Inhibitory effect on free radical diphenylpicrylhydrazide, UV spectrophotometry at 517 nm
Conditions: for Inhibition % / Absorbance at 517 nm: ethanolic solution, 20 micromoles by liter of compound, 100 micromeres by liter of radical (VIII), 30 minutes at 20° C.; for Absorbance at 517 nm: vat 1 cm, control only 1.15
Experimental: The anti-oxidizing potential in solution of the amide-phenol compounds (I) and (II) was evaluated by the degree of their reaction with radical free diphenyl-picrylhydrazide (VIII) following C. T. Ho, Journal of Agricultural and Food Chemistry, 1999, p.
The inhibitory effect of the free radicals claimed for the compounds (Ia) and (IIa) has been evaluated by the measure of their absorbencies in UV spectrophotometry at 517 nanometers in the presence of an excess of radical diphenylpicrylhydrazide (VIII).
Ethanolic solutions containing 20 micromoles by liter of compound to test and 100 micromeres by liter of radical (VIII) agitated for 30 minutes at 20° C. and placed in a vat 1 cm of length.

COC(=O)c1cc(O)c(O)c(O)c1 [Gallate of methyl (IIIa), methyl gallate]
Inhibition %: 71%
Absorbance at 517 nm: 0.33

CCCCCCCCCCC(CO)NC(=O)c1cc(O)c(O)c(O)c1 (stereo not shown) [Gallic amide (Ia)]
inhibitory activity compared with TROLOX and methyl gallate (in words) (diphenylpicrylhydrazide radical test): lower than TROLOX but comparable to that of methyl gallate
Inhibition %: 70%
Absorbance at 517 nm: 0.35

Cc1c(C)c2c(c(C)c1O)CCC(C)(C(=O)O)O2 (stereo not shown) [TROLOX (IVa), 6-hydroxy-2,5,7,8-tetramethyl chroman-2-carboxylic acid]
Inhibition %: 91%
Absorbance at 517 nm: 0.10
